Measured values as given in PubChem BioAssay AID256 (DTP/NCI, 2004).
Several values for one entry are separate records, joined by “and”; a condition that tells them apart may be missing. Equal entries are not always repeated. Toxic doses and inconclusive results are not listed. How the source made its calls: active means survival T/C of 150% or more; inactive means T/C below 125% in these data.

System: CD2F1 mice, L1210 leukemia ip, survival T/C
Assay: NCI In Vivo Anticancer Drug Screen. Data for tumor model L1210 Leukemia (intraperitoneal) in CD2F1 (CDF1) mice
Conditions: higher = longer survival
Outline: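 In this screen, transplantable tumors were grown in mice given either the compound or its vehicle. Results were expressed as the treated measurement relative to the control measurement.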

[1] = endpoint: mean survival time, dose: 100.0 mg/kg/injection, schedule: Q04DX003 (ip), vehicle: saline
[2] = endpoint: mean survival time, dose: 200.0 mg/kg/injection, schedule: Q04DX003 (ip), vehicle: saline
[3] = endpoint: mean survival time, dose: 400.0 mg/kg/injection, schedule: Q04DX003 (ip), vehicle: saline
[4] = endpoint: mean survival time, dose: 100.0 mg/kg/injection, schedule: Q01DX009 (ip), vehicle: saline
[5] = endpoint: mean survival time, dose: 200.0 mg/kg/injection, schedule: Q01DX009 (ip), vehicle: saline
[6] = endpoint: mean survival time, dose: 25.0 mg/kg/injection, schedule: Q01DX009 (ip), vehicle: saline with Tween-80
[7] = endpoint: mean survival time, dose: 100.0 mg/kg/injection, schedule: Q01DX001 (ip), vehicle: saline with Tween-80
[8] = endpoint: mean survival time, dose: 100.0 mg/kg/injection, schedule: Q01DX009 (ip), vehicle: saline with Tween-80
[9] = endpoint: mean survival time, dose: 200.0 mg/kg/injection, schedule: Q01DX001 (ip), vehicle: saline with Tween-80
[10] = endpoint: mean survival time, dose: 200.0 mg/kg/injection, schedule: Q01DX009 (ip), vehicle: saline with Tween-80
[11] = endpoint: mean survival time, dose: 400.0 mg/kg/injection, schedule: Q01DX001 (ip), vehicle: saline with Tween-80
[12] = endpoint: mean survival time, dose: 400.0 mg/kg/injection, schedule: Q01DX009 (ip), vehicle: saline with Tween-80
[13] = endpoint: mean survival time, dose: 100.0 mg/kg/injection, schedule: Q04DX003 (ip), vehicle: saline with Tween-80
[14] = endpoint: mean survival time, dose: 200.0 mg/kg/injection, schedule: Q04DX003 (ip), vehicle: saline with Tween-80
[15] = endpoint: mean survival time, dose: 400.0 mg/kg/injection, schedule: Q04DX003 (ip), vehicle: saline with Tween-80

Measured: T/C

O=S(O)OS(=O)O
inactive: endpoint: mean survival time, dose: 37.5 mg/kg/injection, schedule: Q01DX009 (ip), vehicle: saline 89 % of control | endpoint: mean survival time, dose: 75.0 mg/kg/injection, schedule: Q01DX009 (ip), vehicle: saline 91 % of control | [1] 101 % of control | endpoint: mean survival time, dose: 150.0 mg/kg/injection, schedule: Q01DX009 (ip), vehicle: saline 93 % of control | [2] 101 % of control | endpoint: mean survival time, dose: 300.0 mg/kg/injection, schedule: Q01DX009 (ip), vehicle: saline 91 % of control | [3] 96 % of control

CCOC(=O)C(C)C(=O)O (stereo not drawn)
inactive: endpoint: mean survival time, dose: 50.0 mg/kg/injection, schedule: Q01DX009 (ip), vehicle: saline 97 % of control | [4] 98 % of control | [1] 98 % of control | [5] 98 % of control | [2] 96 % of control

CCCCCCC(C(=O)OCC)P(=O)(OCC)OCC (stereo not drawn)
inactive: endpoint: mean survival time, dose: 18.75 mg/kg/injection, schedule: Q01DX009 (ip), vehicle: saline with Tween-80 98 % of control | endpoint: mean survival time, dose: 37.5 mg/kg/injection, schedule: Q01DX009 (ip), vehicle: saline with Tween-80 96 % of control | endpoint: mean survival time, dose: 75.0 mg/kg/injection, schedule: Q01DX009 (ip), vehicle: saline with Tween-80 96 % of control | endpoint: mean survival time, dose: 75.0 mg/kg/injection, schedule: Q04DX003 (ip), vehicle: saline with Tween-80 95 % of control

CC(C)CCNc1ncnc2[nH]ncc12
inactive: endpoint: mean survival time, dose: 12.5 mg/kg/injection, schedule: Q04DX003 (ip), vehicle: Klucel (hydroxypropylcellulose) (HPC) 106 % of control | endpoint: mean survival time, dose: 25.0 mg/kg/injection, schedule: Q04DX003 (ip), vehicle: Klucel (hydroxypropylcellulose) (HPC) 106 % of control | endpoint: mean survival time, dose: 50.0 mg/kg/injection, schedule: Q04DX003 (ip), vehicle: Klucel (hydroxypropylcellulose) (HPC) 100 % of control

CC(C)C1=CC2=CCC3C(C)(C(=O)O)CCCC3(C)C2CC1 (stereo not drawn)
inactive: [6] 103 % of control | endpoint: mean survival time, dose: 50.0 mg/kg/injection, schedule: Q01DX009 (ip), vehicle: saline with Tween-80 98 % of control | [7] 98 % of control | [8] 96 % of control | [9] 95 % of control | [10] 96 % of control | [11] 102 % of control | [12] 97 % of control

CCCCCCCCCCCC[N+]1(C)CCC[N+](C)(CCCCCCCCCCCC)CC1 (stereo not drawn)
inactive: endpoint: mean survival time, dose: 18.7 mg/kg/injection, schedule: Q01DX001 (ip), vehicle: saline with Tween-80 116 % of control | endpoint: mean survival time, dose: 37.5 mg/kg/injection, schedule: Q01DX001 (ip), vehicle: saline with Tween-80 98 % of control | endpoint: mean survival time, dose: 75.0 mg/kg/injection, schedule: Q01DX001 (ip), vehicle: saline with Tween-80 113 % of control and 101 % of control

CC1CN(C(=N)C#N)C(C)CN1C(=N)C#N (stereo not drawn)
inactive: endpoint: mean survival time, dose: 6.25 mg/kg/injection, schedule: Q01DX009 (ip), vehicle: saline with Tween-80 96 % of control | endpoint: mean survival time, dose: 12.5 mg/kg/injection, schedule: Q01DX009 (ip), vehicle: saline with Tween-80 102 % of control | [6] 105 % of control

N#C/C(=C1C=C/C(=N\O)C(Cl)=C\1)c1ccccc1
inactive: [8] 103 % of control | [13] 88 % of control | [10] 88 % of control | [14] 93 % of control | [15] 96 % of control

CCCCC(Sc1n[nH]c(=O)[nH]c1=O)C(=O)OCC (stereo not drawn)
inactive: endpoint: mean survival time, dose: 12.5 mg/kg/injection, schedule: Q01DX005 (ip), vehicle: distilled water + Tween-80 96 % of control | endpoint: mean survival time, dose: 25.0 mg/kg/injection, schedule: Q01DX005 (ip), vehicle: distilled water + Tween-80 100 % of control | endpoint: mean survival time, dose: 50.0 mg/kg/injection, schedule: Q01DX005 (ip), vehicle: distilled water + Tween-80 96 % of control | endpoint: mean survival time, dose: 100.0 mg/kg/injection, schedule: Q01DX005 (ip), vehicle: distilled water + Tween-80 103 % of control | endpoint: mean survival time, dose: 200.0 mg/kg/injection, schedule: Q01DX005 (ip), vehicle: distilled water + Tween-80 97 % of control

O=C(N/N=C/c1ccc(O)cc1O)c1cccnc1
inactive: endpoint: mean survival time, dose: 6.25 mg/kg/injection, schedule: Q01DX009 (ip), vehicle: olive oil, sesame oil, peanut oil 102 % of control | endpoint: mean survival time, dose: 12.5 mg/kg/injection, schedule: Q01DX009 (ip), vehicle: olive oil, sesame oil, peanut oil 98 % of control | endpoint: mean survival time, dose: 25.0 mg/kg/injection, schedule: Q01DX009 (ip), vehicle: olive oil, sesame oil, peanut oil 98 % of control | endpoint: mean survival time, dose: 50.0 mg/kg/injection, schedule: Q01DX009 (ip), vehicle: olive oil, sesame oil, peanut oil 98 % of control | endpoint: mean survival time, dose: 100.0 mg/kg/injection, schedule: Q01DX009 (ip), vehicle: olive oil, sesame oil, peanut oil 100 % of control

Cc1cc(=O)c2c(ccc3[nH]c(-c4ccco4)nc32)[nH]1
inactive: endpoint: mean survival time, dose: 100.0 mg/kg/injection, schedule: Q04DX002 (ip), vehicle: saline with Tween-80 95 % of control | endpoint: mean survival time, dose: 200.0 mg/kg/injection, schedule: Q04DX002 (ip), vehicle: saline with Tween-80 102 % of control | endpoint: mean survival time, dose: 400.0 mg/kg/injection, schedule: Q04DX002 (ip), vehicle: saline with Tween-80 91 % of control

Nc1ncnc2c1ncn2CCCCCO
inactive: [7] 96 % of control | [9] 91 % of control | [11] 91 % of control

C=Cc1cc(OC)c2c(c1)c(=O)oc1c2cc(OC)c2c(O)ccc(C3OC(C(C)O)C(O)C3O)c21 (stereo not drawn)
inactive: endpoint: median survival time, dose: 25.0 mg/kg/injection, schedule: Q01DX009 (ip), vehicle: Klucel (hydroxypropylcellulose) (HPC) 112 % of control | endpoint: median survival time, dose: 36.0 mg/kg/injection, schedule: Q01DX009 (ip), vehicle: Klucel (hydroxypropylcellulose) (HPC) 118 % of control | endpoint: median survival time, dose: 50.0 mg/kg/injection, schedule: Q01DX009 (ip), vehicle: Klucel (hydroxypropylcellulose) (HPC) 112 % of control | endpoint: median survival time, dose: 60.0 mg/kg/injection, schedule: Q01DX009 (ip), vehicle: Klucel (hydroxypropylcellulose) (HPC) 109 % of control | endpoint: median survival time, dose: 100.0 mg/kg/injection, schedule: Q01DX009 (ip), vehicle: Klucel (hydroxypropylcellulose) (HPC) 113 % of control and 100 % of control | endpoint: median survival time, dose: 166.7 mg/kg/injection, schedule: Q01DX009 (ip), vehicle: Klucel (hydroxypropylcellulose) (HPC) 116 % of control | endpoint: median survival time, dose: 277.8 mg/kg/injection, schedule: Q01DX009 (ip), vehicle: Klucel (hydroxypropylcellulose) (HPC) 120 % of control | endpoint: median survival time, dose: 400.0 mg/kg/injection, schedule: Q01DX009 (ip), vehicle: Klucel (hydroxypropylcellulose) (HPC) 111 % of control

O=C(O)/C=C/CC(=O)O
inactive: endpoint: mean survival time, dose: 100.0 mg/kg/injection, schedule: Q01DX001 (ip), vehicle: saline 92 % of control | endpoint: mean survival time, dose: 200.0 mg/kg/injection, schedule: Q01DX001 (ip), vehicle: saline 97 % of control | endpoint: mean survival time, dose: 400.0 mg/kg/injection, schedule: Q01DX001 (ip), vehicle: saline 101 % of control

c1nc[nH]n1
inactive: [4] 98 % of control | [1] 95 % of control | [5] 98 % of control | [2] 97 % of control | endpoint: mean survival time, dose: 400.0 mg/kg/injection, schedule: Q01DX009 (ip), vehicle: saline 93 % of control | [3] 100 % of control

Brc1ccc(Br)cc1
inactive: [8] 103 % of control | [10] 100 % of control | [12] 97 % of control

CCOC(=O)c1cc(=O)n(C)c2ccc(OCC)cc12
inactive: endpoint: mean survival time, dose: 100.0 mg/kg/injection, schedule: Q01DX009 (ip), vehicle: saline sonified 101 % of control | [13] 100 % of control | endpoint: mean survival time, dose: 200.0 mg/kg/injection, schedule: Q01DX009 (ip), vehicle: saline sonified 97 % of control | [14] 91 % of control | endpoint: mean survival time, dose: 400.0 mg/kg/injection, schedule: Q01DX009 (ip), vehicle: saline sonified 97 % of control | [15] 91 % of control

O=C(Nc1ccc(Cl)c(C(F)(F)F)c1)Nc1cc(C(F)(F)F)ccc1Sc1cc(Cl)c(Cl)cc1S(=O)(=O)O
inactive: [8] 101 % of control

CSCC1CCCCC12OCCO2 (stereo not drawn)
inactive: [7] 104 % of control | [9] 96 % of control | [11] 96 % of control

CN(C)c1ccc(/C=C(\C#N)c2ccc(Cl)cc2)c(Cl)c1
inactive: [8] 90 % of control | [13] 86 % of control | [10] 94 % of control | [14] 89 % of control | [12] 90 % of control | [15] 86 % of control

COc1cc(NCCCCCCCNC(C)C)c2nccc(C)c2c1
inactive: endpoint: median survival time, dose: 3.12 mg/kg/injection, schedule: Q01DX009 (ip), vehicle: saline 98 % of control | endpoint: median survival time, dose: 6.25 mg/kg/injection, schedule: Q01DX009 (ip), vehicle: saline 102 % of control | endpoint: median survival time, dose: 12.5 mg/kg/injection, schedule: Q01DX009 (ip), vehicle: saline 97 % of control
